For one cell line, relative viability results are on record in the supplement of paper PMC10307832.

What all share (test): relative viability (nuclei count vs DMSO), 5 days (fraction); higher = more cells survive
Compound in assay [1]: CN1C=C(C2=CC=CC=C21)/C=C\3/C4=C(C=CC=N4)NC3=O + Cc1cc(Nc2cc(N3CCN(C)CC3)nc(Sc3ccc(NC(=O)C4CC4)cc3)n2)n[nH]1 [Tozasertib] (partner 0.1 µM)
The procedure, abridged: (§1)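 The day after seeding in 1536-well plates, lung cancer cell lines were treated by pin tool with a single drug, or with a fixed anchor-drug dose together with five library-drug doses (not always all listed) in √10 steps. After 5 days, a combined fix-and-stain solution (final 0.05% Triton X-100, 1% formaldehyde, 1 ug/ml Hoechst) was added. Nuclei counted on 4× images gave relative viability as treated counts over vehicle counts, reported as the median of duplicate plates.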

Compound in assay [2]: CN1C=C(C2=CC=CC=C21)/C=C\3/C4=C(C=CC=N4)NC3=O + CS(=O)(=O)CCNCc1ccc(-c2ccc3ncnc(Nc4ccc(OCc5cccc(F)c5)c(Cl)c4)c3c2)o1 [Lapatinib] (partner 2 µM)
The procedure, abridged: as §1

Compound in assay [3]: CC(=O)Nc1cccc(-n2c(=O)n(C3CC3)c(=O)c3c(Nc4ccc(I)cc4F)n(C)c(=O)c(C)c32)c1 [Trametinib] + O=C(c1cc(Cc2n[nH]c(=O)c3ccccc23)ccc1F)N1CCN(C(=O)C2CC2)CC1 [Olaparib] (partner 8 µM)
In short, it runs like this: as §1

Compound in assay [4]: CN1C=C(C2=CC=CC=C21)/C=C\3/C4=C(C=CC=N4)NC3=O + O=C(c1cc(Cc2n[nH]c(=O)c3ccccc23)ccc1F)N1CCN(C(=O)C2CC2)CC1 [Olaparib] (partner 8 µM)
The procedure, abridged:
as §1

With UMC-11, the relative viability in assay [1] (first compound 0.02 µM) is 0.206; in assay [1] (first compound 0.06325 µM), 0.198; in assay [1] (first compound 0.2 µM) it was 0.177; in assay [1] (first compound 0.6325 µM), 0.191; in assay [1] (first compound 2 µM) it was 0.227; in assay [2] (first compound 0.02 µM) it was 0.854. The relative viability in assay [2] (first compound 0.06325 µM) came to 0.901; in assay [2] (first compound 0.2 µM) it was 0.632; in assay [2] (first compound 0.6325 µM), 0.897; in assay [2] (first compound 2 µM) it was 1.33; in assay [3] (first compound 0.0025 µM) it was 0.547; in assay [3] (first compound 0.007906 µM), 0.455. Also, the relative viability in assay [3] (first compound 0.07906 µM) was 0.303; in assay [3] (first compound 0.25 µM), 0.29; in assay [4] (first compound 0.02 µM), 0.461; in assay [4] (first compound 0.06325 µM), 0.333; in assay [4] (first compound 0.2 µM), 0.356; in assay [4] (first compound 0.6325 µM) it was 0.381. In addition, the relative viability in assay [4] (first compound 2 µM) was found to be 0.47.
